US20240307345A1, “R-MDMA and S-MDMA TO ASSIST PSYCHOTHERAPY” (Universitatsspital Basel, priority 2022, published 2024)
Entries after “also recorded” stand apart in the source; their conditions may differ.

Legend:
healthy subjects [1] = test: Acute subjective effects on the Visual Analog Scale (VAS); assay type: in vivo, human
Experimental: (§1) Study design: The present study compares the acute subjective, physiological and endocrine effects of S-MDMA (125 mg), R-MDMA (125 and 250 mg), MDMA (125 mg) using a placebo-controlled double-blind 5-period cross-over design in 24 healthy subjects. Conditions are 1.) R-MDMA 125 mg, 2). R-MDMA 250 mg, 3) S-MDMA 125 mg, 4) MDMA 125 mg, 5) placebo. Treatment order is counterbalanced. Washout periods between substance administrations are at least 10 days. Study days include a 10-hour study session with a subsequent single measurement (short visit) the next morning (24 hours after drug administration).
Study procedures: The study takes place at the University Hospital Basel. Each of the test sessions last from 8:00 until 18:00 with a short visit the next morning (24 hours after application). An indwelling intravenous catheter is inserted into a subcutaneous vein of the forearm and baseline psychometric measures are obtained. Administration of the substance is at 9:00. Outcome measures (see below) are repeatedly assessed during the study session. Subjects are under continuous medical supervision until any alterations of consciousness have completely subsided and they leave the research facility.
Psychometric assessments: Visual Analog Scale (VAS): VASs is repeatedly used to assess subjective alterations in consciousness over time. Single scales are presented as 100 mm horizontal lines marked with “not at all” on the left and “extremely” on the right. The following VAS items are used: “any drug effect”, “good drug effect”, “bad drug effect”, “stimulated”, “liking”, “happy”, “content”, “talkative”, “open”, “trust”, “feeling close to others”, “anxiety”, “alteration of vision”, “alterations of hearing”, “sounds seem to influence what I see”, “alteration of sense of time”, “the boundaries between myself and my surroundings seem to blur”, “want to be with other people”, and “want to be alone”. Scales are administered before and repeatedly after substance administration and take approximately 2 minutes to fill out. The maximal ratings (Emax, 0-100) and areas under the effect-time curve (AUEC) are defined for each VAS and Emax and AUEC values compared between treatments using analysis of variance. 5-Dimensions of Altered States of Consciousness (5D-ASC): The 5 Dimensions of Altered States of Consciousness (5D-ASC) Scale is a questionnaire containing visual analog scales for 94 items (Studerus et al., 2010). The instrument contains five scales assessing mood, anxiety, derealization, depersonalization, changes in perception, auditory alterations, and reduced vigilance. The scale is well-validated (Studerus et al., 2010) and used internationally to evaluate effects of many other psychoactive substances. The overall psychedelic experience is reflected by the total […] score. Each item of the scale is scored on a 0-100 mm VAS. The attribution of the individual items to the subscales of the 5D-ASC is analyzed according to (Studerus et al., 2010). The 5D-ASC scale is administered once at the end of the session and subjects are instructed to retrospectively rate peak alterations that have been experienced during the study session. Adiective Mood Rating Scale (AMRS): The Adjective Mood Rating Scale (AMRS or EWL60S) is a 60-item Likert scale that allows repeated assessment of mood in 6 dimensions: Activation, inactivation, well-being, anxiety/depressed mood, extra- and introversion, and emotional excitability. The German EWL60S version is used. The AMRS consists of subscales measuring “activation,” “positive mood,” “extraversion,” “introversion,” “inactivation,” and “emotional excitability. The scale has previously been used to evaluate effects of many other psychoactive substances. Emax and AUEC scores will be defined for each subscale and compared between treatments using analysis of variance. The AMRS is administered repeatedly throughout the study session and once 3 days after each session. […]

healthy subjects [2] = test: Adverse effects (List of Complaints); assay type: in vivo, human; details: for adverse effects 24 to 72 hours after substance administration: 125 mg, compared with placebo
Experimental: as §1
Adverse effects (list of complaints): The list of complaints (LC) consists of 66 items offering a global score measuring physical and general discomfort (Zerssen, 1976). The LC is administered before (baseline), at the end of the session to cover effects from 0-9 hours and 24 hours after substance administration to cover aftereffects from 9-24 hours. To assess adverse effects after 24 hours, subjects fill out an additional LC 3 days after the test session, covering adverse effects from 24-72 hours. Subjects are additionally be asked to report any adverse events during the sessions or/and between study sessions as assessed at the beginning of the next session and at the EOS visit. Global LC scores are summed up and compared between treatments using analysis of variance.

healthy subjects [3] = test: Connectedness subscale of the PES questionnaire; assay type: in vivo, human
[4] = mice; cited from earlier work
rodents = details: relative to racemic MDMA; cited from earlier work

SMILES	how much stimulated participants felt (healthy subjects [1]; 125 mg S-MDMA compared to (±)-MDMA)	how much stimulated participants felt (healthy subjects [1]; 125 mg S-MDMA compared to both doses of R-MDMA)	VAS Emax for “bad drug effects,” “alteration of vision” and “audio-visual synesthesia” (healthy subjects [1]; 125 mg S-MDMA compared with 125 mg (±)-MDMA, 24 subjects)	VAS items “alteration of vision” and “audio-visual synesthesia” (healthy subjects [1]; 125 mg S-MDMA compared with both R-MDMA doses and (±)-MDMA)	all VAS items except “fear” (healthy subjects [1]; 125 mg S-MDMA versus 250 mg R-MDMA)	VAS “any drug effects”, “good drug effects”, “I like the effect”, “stimulation”, “alteration of time” and “ego dissolution” (healthy subjects [1]; 125 mg S-MDMA versus 125 and 250 mg R-MDMA)	VAS “bad drug effects,” “alteration of vision” and “audio-visual synesthesia” (healthy subjects [1]; 125 mg S-MDMA versus (±)-MDMA and 250 mg R-MDMA)	VAS “talkative,” “open,” “trust,” and “I feel close to others” (healthy subjects [1]; 125 mg, compared with both R-MDMA doses and placebo)	feelings of “drug high” (healthy subjects [1]; S-MDMA compared with R-MDMA, abuse potential)	adverse effects 24 to 72 hours after substance administration (healthy subjects [2])	ratings of connectedness, difference between conditions (healthy subjects [3]; 125 mg)	enantiomer converted to the other enantiomer after administration [4] [%]	potency for locomotor stimulant effects (rodents)	VAS Emax for “feeling high” (healthy subjects [1]; 250 mg R-MDMA compared with 125 mg (±)-MDMA, 24 subjects)	VAS “drug high”, “happy”, “content”, “talkative”, “open”, “trust” and “I feel close to others” (healthy subjects [1]; 250 mg R-MDMA versus (±)-MDMA and S-MDMA)	overall adverse effects (healthy subjects [2]; R-MDMA versus (±)-MDMA)	ratings of connectedness, difference between conditions (healthy subjects [3]; 250 mg)
CN[C@@H](C)Cc1ccc2c(c1)OCO2 [S-MDMA, S(+)-MDMA]	no significant difference	higher values	higher Emax values	higher increases	significant stronger effects	more than 125 and 250 mg R-MDMA	stronger	higher values	greater	only increased; also recorded: increased number of adverse effects	no difference	9.9	mostly equipotent to racemic MDMA	–	–	–	–
CN[C@H](C)Cc1ccc2c(c1)OCO2 [R-MDMA, R(−)-MDMA]	–	–	–	–	–	–	–	–	–	only increased; also recorded: increased number of adverse effects	–	3.5	clearly less potent than racemic MDMA	lower Emax values	lower effects	it does not seem that R-MDMA produces overall less adverse effects	no difference
